Reference: US20250129101A1, “Compound, Pharmaceutical Composition Comprising the Same and Method for Treating Cancer Using the Same” (NATIONAL TSING HUA UNIVERSITY, priority 2023, published 2025)

Key:
KIF2C = target: T1, KIF2C (Homo sapiens, UniProt Q99661); experiment: In vitro validation: KIF2C kinesin activity, malachite green-based phosphate colorimetric assay; assay type: biochemical; conditions: concentration that inhibits 50% of KIF2C activity
T1 construct: KIF2C (216-598 a.a.); 6xHis (C); made in house; host or cells: E. coli BL21 (DE3), pET-28a
T1 sequence (Q99661 216-598): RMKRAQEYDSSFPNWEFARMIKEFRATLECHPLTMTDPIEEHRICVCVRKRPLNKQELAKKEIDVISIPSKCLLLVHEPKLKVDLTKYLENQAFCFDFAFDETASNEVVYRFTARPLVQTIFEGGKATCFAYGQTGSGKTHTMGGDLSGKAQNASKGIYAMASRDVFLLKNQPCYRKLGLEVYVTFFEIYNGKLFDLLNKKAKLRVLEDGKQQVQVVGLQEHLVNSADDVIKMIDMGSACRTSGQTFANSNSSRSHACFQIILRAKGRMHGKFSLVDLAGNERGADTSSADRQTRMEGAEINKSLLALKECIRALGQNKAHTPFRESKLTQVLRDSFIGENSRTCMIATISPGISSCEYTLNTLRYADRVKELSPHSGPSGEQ
Experimental: (§1) The in vitro validation was performed by measuring KIF2C kinesin activity using malachite green-based phosphate colorimetric assay (BioVision). […] The microtubules from porcine brain tubulin (Cytoskeleton) or purified from HEK293 cells in Free-style medium (293Fs) were dissolved in the BRB80 buffer (80 mM PIPES pH 6.8, 1 mM EGTA, 1 mM MgCl2, 1 mM GTP, 1 mM DTT, and 10% DMSO) at 37° C. for 2 hr. Phosphates released from kinesin-mediated ATP hydrolysis was measured by adding 30 μL of the phosphate colorimetric reagent (BioVision), incubated for 10 min, and then measured with absorbance at 650 nm. […] The cell validation was performed by measuring cytotoxicity in MDA-MB-231 cells. The cells were cultured in a 96-well plate at a confluence of 2000 cells/well with indicates compounds for specific days. When the time was up, the culture medium in the plate was aspirated and replaced with a prepared CellTiter-Glo reagent (Promega)/DMEM mixture (1:1 mix of CellTiter-Glo reagent and serum-supplemented DMEM). After incubation for 10 min, the luminescence was measured with an ELISA plate reader to determine the cell viability.
In vitro kinesin activity was measured using malachite green-based phosphate colorimetric assay (BioVision). […] The microtubules from porcine brain tubulin (Cytoskeleton) or purified from HEK293 cells in Free-style medium (293Fs) were dissolved in the BRB80 buffer (80 mM PIPES pH 6.8, 1 mM EGTA, 1 mM MgCl2, 1 mM GTP, 1 mM DTT, and 10% DMSO) at 37° C. for 2 hr. Phosphates released from kinesin-mediated ATP hydrolysis was measured by adding 30 μL of the phosphate colorimetric reagent (BioVision), incubated for 10 min, and then measured with absorbance at 650 nm.
Constructs of sN+M regions of KIF2C (216-598 a.a.), KIF2A (181-562 a.a.) and KIF2B (171-553 a.a.) with C-terminal 6×His tag were subcloned into pET-28a vector and expressed in BL21 (DE3) E. coli cells (Novartis) cultured in Luria-Bertani medium supplemented with 50 ug/mL kanamycin at 37° C. After induction with 0.8 mM IPTG for 18 hr at 20° C., the cells were pelleted by centrifugation at 6000 rpm for 30 min at 10° C. The collected pellets were resuspended in 30 mL of buffer A (20 mM Tris-HCl pH 7.5, 500 mM NaCl, 10 mM imidazole, 1% CHAPS, and 1 mM PMSF) and next subjected to a high-pressure homogenizer (EmulsiFlex-C3) for cell lysis. After removing the cell debris by centrifugation at 13000 rpm for 30 min at 10° C., the recombinant Kinesin-13 in the supernatant was purified using nickel affinity chromatography. Firstly, the supernatant was applied to the Ni-NTA column (GE Healthcare) pre-equilibrated with buffer A. Secondly, the column was washed with 10× column volumes of buffer A to remove the unwanted proteins. The washed column was then eluted with 10× column volumes of buffer containing increasing concentrations of imidazole (40, 100, 300, 1000 mM), and the majority of the recombinant Kinesin-13 protein was eventually obtained in a fraction of 300 mM imidazole. The fractions containing the recombinant Kinesin-13 were subsequently concentrated in the buffer B (20 mM Tris-HCl pH 7.5, 10 mM imidazole, 50 mM NaCl, 2 mM DTT) using an Amicon® Ultra filter (Millipore) and subjected to cation exchange column (Capto S, GE Healthcare) for further purification. The recombinant Kinesin-13 was then eluted in elution buffer (20 mM Tris-HCl pH 7.5 and 2 mM DTT) containing 400 mM of NaCl and stored at −80° C. for long-term storage.

MDA-MB-231 cells = experiment: Cell validation: cytotoxicity in MDA-MB-231 cells (CellTiter-Glo); assay type: cell-based; conditions: for IC50: Homo sapiens; for IC50 / Cell validation (IC50): cytotoxicity in MDA-MB-231 cells
Experimental: as §1
The cancer cells were cultured in a 96-well plate at a confluence of 1000-2000 cells/well with indicated drugs for specific days. When the time was up, the culture medium in the plate was aspirated and replaced with a prepared CellTiter-Glo reagent/DMEM mixture (1:1 mix of CellTiter-Glo reagent and serum-supplemented DMEM). After incubation for 10 min, the luminescence (proportional to the number of living cells) was measured with an ELISA plate reader to determine the cell viability.

SMILES | EC50 (KIF2C) [µM] | IC50 (MDA-MB-231 cells) [µM] | Cell validation (IC50) (MDA-MB-231 cells) | cytotoxicity on MDA-MB-231 cells (in words) (MDA-MB-231 cells; 72 hr)
CC1=C(C(=O)OC(C)C)C(c2ccc(Cl)cc2)n2c(s/c(=C\c3ccc(OCc4cnn[nH]4)cc3)c2=O)=N1 (stereo not drawn) [37S0 (120), isopropyl (Z)-2-(4-((1H-1,2,3-triazol-5-yl)methoxy)benzylidene)-5-(4-chlorophenyl)-7-methyl-3-oxo-2,3-dihydro-5H-thiazolo[3,2-a]pyrimidine-6-carboxylate] | > 100 | > 50 | – | –
CC1=C(C(=O)OC(C)C)C(c2ccc(Cl)cc2)n2c(s/c(=C\c3ccc(OCC#N)cc3)c2=O)=N1 (stereo not drawn) [38S0 (117), isopropyl (Z)-5-(4-chlorophenyl)-2-(4-(cyanomethoxy)benzylidene)-7-methyl-3-oxo-2,3-dihydro-5H-thiazolo[3,2-a]pyrimidine-6-carboxylate] | > 100 | > 50 | – | –
CC1=C(C(=O)OC(C)C)C(c2ccc(Cl)cc2)n2c(s/c(=C\c3ccc(OCCCO)cc3)c2=O)=N1 (stereo not drawn) [39S0 (118), isopropyl (Z)-5-(4-chlorophenyl)-2-(4-(3-hydroxypropoxy)benzylidene)-7-methyl-3-oxo-2,3-dihydro-5H-thiazolo[3,2-a]pyrimidine-6-carboxylate] | > 100 | > 50 | – | –
COc1ccc(C2C(C(=O)OC(C)C)=C(C)N=c3s/c(=C\c4ccc(OCC(=O)N5CCN(C)CC5)cc4)c(=O)n32)cc1 (stereo not drawn) [42S0 (61), isopropyl (Z)-5-(4-methoxyphenyl)-7-methyl-2-(4-(2-(4-methylpiperazin-1-yl)-2-oxoethoxy)benzylidene)-3-oxo-2,3-dihydro-5H-thiazolo[3,2-a]pyrimidine-6-carboxylate] | > 100 | 20 to 50 | – | –
CCOC(=O)C1=C(C)N=c2s/c(=C\c3ccc(OCC(=O)OC)cc3)c(=O)n2[C@@H]1c1ccc(Cl)cc1 [44S0 (128)] | > 100 | > 50 | – | –
CCOC(=O)C1=C(C)N=c2s/c(=C\c3ccc(OCC(=O)OC)cc3)c(=O)n2[C@H]1c1ccc(Cl)cc1 [45S0 (129)] | > 100 | > 50 | – | –
COC(=O)COc1ccc(/C=c2\sc3n(c2=O)C(c2ccc(Cl)cc2)C(C(=O)OC(C)C)=C(C)N=3)cc1 (stereo not drawn) [46S0 (25), isopropyl (Z)-5-(4-chlorophenyl)-2-(4-(2-methoxy-2-oxoethoxy)benzylidene)-7-methyl-3-oxo-2,3-dihydro-5H-thiazolo[3,2-a]pyrimidine-6-carboxylate] | > 100 | > 50 | – | –
CC1=C(C(=O)OC(C)C)C(c2ccc(Cl)cc2)n2c(s/c(=C\c3ccc(OC(C)(C)C(=O)O)cc3)c2=O)=N1 (stereo not drawn) [47S0 (107), (Z)-2-(4-((5-(4-chlorophenyl)-6-(isopropoxycarbonyl)-7-methyl-3-oxo-5H-thiazolo[3,2-a]pyrimidin-2(3H)-ylidene)methyl)phenoxy)-2-methylpropanoic acid] | > 100 | > 50 | – | –
CCOC(=O)C1=C(C)N=c2s/c(=C\c3ccc(OCC(=O)N4CCN(C)CC4)cc3)c(=O)n2C1c1ccc(Cl)cc1 (stereo not drawn) [49S0 (94)] | 50 to 100 | – | + + | –
CC1=C(C(=O)OC(C)C)C(c2ccc(-n3ccnc3)cc2)n2c(s/c(=C\c3ccc(OCC(=O)O)cc3)c2=O)=N1 (stereo not drawn) [52S0 (45), (Z)-2-(4-((5-(4-(1H-imidazol-1-yl)phenyl)-6-(isopropoxycarbonyl)-7-methyl-3-oxo-5H-thiazolo[3,2-a]pyrimidin-2(3H)-ylidene)methyl)phenoxy)acetic acid] | > 100 | > 50 | – | –
CC1=C(C(=O)OC(C)(C)C)C(c2ccc(Cl)cc2)n2c(s/c(=C\c3ccc(OCC(=O)O)cc3)c2=O)=N1 (stereo not drawn) [53S0 (80), (Z)-2-(4-((6-(tert-butoxycarbonyl)-5-(4-chlorophenyl)-7-methyl-3-oxo-5H-thiazolo[3,2-a]pyrimidin-2(3H)-ylidene)methyl)phenoxy)acetic acid] | 50 to 100 | > 50 | – | –
CCOC(=O)C1=C(C)N=c2s/c(=C\c3ccc(OCC(=O)O)cc3)c(=O)n2[C@H]1c1ccc(Cl)cc1 [55S0 (131)] | > 100 | > 50 | – | –
CC1=C(C(=O)OC(C)C)C(c2ccc(Cl)cc2)n2c(s/c(=C\c3ccc(OCC(=O)NS(=O)(=O)C(F)(F)F)cc3)c2=O)=N1 (stereo not drawn) [56S0 (121), isopropyl (Z)-5-(4-chlorophenyl)-7-methyl-3-oxo-2-(4-(2-oxo-2-((trifluoromethyl)sulfonamido)ethoxy)benzylidene)-2,3-dihydro-5H-thiazolo[3,2-a]pyrimidine-6-carboxylate] | > 100 | > 50 | – | –
CC1=C(C(=O)OC(C)C)C(c2ccc(Cl)cc2)n2c(s/c(=C\c3ccc(OCC(=O)NC4CCN(C)CC4)cc3)c2=O)=N1 (stereo not drawn) [Compound 136] | > 100 | > 50 | – | –
CC1=C(C(=O)O)C(c2ccc(Cl)cc2)n2c(s/c(=C\c3ccc(OCC(=O)N4CCN(C)CC4)cc3)c2=O)=N1 (stereo not drawn) [Compound 137] | < 50 | > 50 | – | –

The next lines start with results.

EC50 (KIF2C) [µM] | SMILES | IC50 (MDA-MB-231 cells) [µM] | Cell validation (IC50) (MDA-MB-231 cells) | cytotoxicity on MDA-MB-231 cells (in words) (MDA-MB-231 cells; 72 hr)
< 20 | CC1=C(C(=O)OC(C)C)C(c2ccc(Br)cc2)n2c(s/c(=C\c3ccc(OCC(=O)O)cc3)c2=O)=N1 (stereo not drawn) [40S0 (40), (4-(((2Z)-5-(4-bromophenyl)-7-methyl-3-oxo-6-((propan-2-yloxy)carbonyl)-5H-[1,3]thiazolo[3,2-a]pyrimidin-2(3H)-ylidene)methyl)phenoxy)acetic acid] | > 50 | – | –
< 50 | COc1ccc(C2C(C(=O)OC(C)C)=C(C)N=c3s/c(=C\c4ccc(OCC(=O)O)cc4)c(=O)n32)cc1 (stereo not drawn) [41S0 (60), (Z)-2-(4-((6-(isopropoxycarbonyl)-5-(4-methoxyphenyl)-7-methyl-3-oxo-5H-thiazolo[3,2-a]pyrimidin-2(3H)-ylidene)methyl)phenoxy)acetic acid] | > 50 | – | –
50 to 100 | COc1ccc(C2C(C(=O)OC(C)C)=C(C)N=c3s/c(=C\c4ccc(OCC(=O)N5CCC(N6CCN(C)CC6)CC5)cc4)c(=O)n32)cc1 (stereo not drawn) [43S0 (62), isopropan-2-yl (2Z)-5-(4-chlorophenyl)-7-methyl-2-(4-(2-(4-(4-methylpiperazin-1-yl)piperidin-1-yl)-2-oxoethoxy)benzylidene)-3-oxo-2,3-dihydro-5H-[1,3]thiazolo[3,2-a]pyrimidine-6-carboxylate] | – | + + + + | –
< 50 | CCOC(=O)C1=C(C)N=c2s/c(=C\c3ccc(OCC(=O)N4CCC(N5CCN(C)CC5)CC4)cc3)c(=O)n2C1c1ccc(Cl)cc1 (stereo not drawn) [50S0 (99)] | – | + + + + | –
50 to 100 | CC1=C(C(=O)OC(C)C)C(c2ccc(N(C)C)cc2)n2c(s/c(=C\c3ccc(OCC(=O)O)cc3)c2=O)=N1 (stereo not drawn) [51S0 (55), (Z)-2-(4-((5-(4-(dimethylamino)phenyl)-6-(isopropoxycarbonyl)-7-methyl-3-oxo-5H-thiazolo[3,2-a]pyrimidin-2(3H)-ylidene)methyl)phenoxy)acetic acid] | > 50 | – | –
50 to 100 | CCOC(=O)C1=C(C)N=c2s/c(=C\c3ccc(OCC(=O)O)cc3)c(=O)n2[C@@H]1c1ccc(Cl)cc1 [54S0 (130)] | > 50 | – | –
50 to 100 | CCN1CCN(C(=O)COc2ccc(/C=c3\sc4n(c3=O)C(c3ccc(Cl)cc3)C(C(=O)OC(C)C)=C(C)N=4)cc2)CC1 (stereo not drawn) [Compound 13S0] | – | + + | showed cytotoxicity
